Entries after “also recorded” stand apart in the source; their conditions may differ.
Experiments:
[1] = system: neointimal formation in ligated carotid; assay: murine carotid artery ligation model: neointimal formation and stenosis (histology); type: in vivo, mouse; details: wild-type mice, left carotid ligation, 21 days; GSK343 in drinking water from 24 hrs before ligation for 3 weeks; GapmeR 15 nmol 24 hrs before and 7 days post-ligation
Protocol: (§1) All mice used in this study were cared for under strict compliance with the Partners Institutional Animal Care and Use Committee (IACUC), regulated by the United States Public Health Service (USPHS). Carotid ligations were performed in 10 week old mice. Briefly, animals were anesthetized using intraperitoneal ketamine/xylazine (80 and 12 mg/kg, respectively) followed by a small incision in the neck to expose the carotid artery. Then the left carotid was ligated at the carotid bifurcation level using a 8-0 silk suture. At 21 days mice were sacrificed and carotids were collected for histological analysis. Approximately 98% of wild type mice developed stenotic lesions. Mice that developed thrombosis of the ligated carotid were excluded from the study (−1¬2%). Malatl knockout mice were kindly provided by Dr. David Spector (Cold Spring Harbor, N.Y.). Hdac9 flox/flox/Talgn-cre mice were generated as previously reported (10). […]
(§2) Left and right carotids were cryosectioned using OCT standard protocol and sectioning. […] Slides 1, 5, 10, and 15 were H&E stained for quantification of neointima. For quantification of the neointima, internal and external elastic lamina perimeters and medial thickness from 4 quadrants were measured and averaged using Image J software from the National Institutes of Health (NIH). […]

a-SMA and SM22a = assay: immunofluorescence of contractile proteins in ligated carotids; type: in vivo, mouse
Protocol: All mice used in this study were cared for under strict compliance with the Partners Institutional Animal Care and Use Committee (IACUC), regulated by the United States Public Health Service (USPHS). Carotid ligations were performed in 10 week old mice. Briefly, animals were anesthetized using intraperitoneal ketamine/xylazine (80 and 12 mg/kg, respectively) followed by a small incision in the neck to expose the carotid artery. Then the left carotid was ligated at the carotid bifurcation level using a 8-0 silk suture. At 21 days mice were sacrificed and carotids were collected for histological analysis. Approximately 98% of wild type mice developed stenotic lesions. Mice that developed thrombosis of the ligated carotid were excluded from the study (−1¬2%). Malatl knockout mice were kindly provided by Dr. David Spector (Cold Spring Harbor, N.Y.). Hdac9 flox/flox/Talgn-cre mice were generated as previously reported (10). Ezh2 fl/fl/ (STOCK Ezh2tm2Sho/J) and Myh11-cre-GFP (B6.Cg-Tg(Myh11-cre,-EGFP)2Mik/J) were crossed to generate smooth muscle cell-Ezh2 deficient mice. All above mice and wild-type mice (C57BL/6J) were purchased from Jackson laboratory. For tissue analysis, animals were euthanized through inhalational isoflurane (Sigma, St, Louis, Mo.) prior to tissue collection. All carotid ligation (left carotid) procedures were performed at 10 weeks of age. All experiments were performed on male and female animals at a 1:1 ratio.
Left and right carotids were cryosectioned using OCT standard protocol and sectioning. The right carotid artery was unligated and served as an internal control. Neoinitima analysis was performed from hematoxylin and eosin (H & E) stained horizontal cross-sections embedded in Optimal Cutting Temperature compound (OCT). Briefly, the distal 0.2 mm of carotid from the ligation suture site were discarded followed by generation of 20 slides (10 pM). Slides 1, 5, 10, and 15 were H&E stained for quantification of neointima. For quantification of the neointima, internal and external elastic lamina perimeters and medial thickness from 4 quadrants were measured and averaged using Image J software from the National Institutes of Health (NIH). Slides 2-4, 6-9, and 11-14 were used for immunofluorescence staining.
Cohorts of 10-week-old wild-type mice were treated with oral administration in drinking water of GSK343 24 hrs before left carotid ligation and following treatment for 3 weeks. GSK343 inhibitor (25 mg) was dissolved in 1 mL of DMSO to obtain a stock solution of 46 mM. Then, 250 ml of drinking water was supplemented with 250 pl of GSK343 stock solution. Control group for was given with equal volumes of sterile water. Bottles containing GSK343 were replaced with fresh water supplied with drug every 3 days. […]

PDGFR = assay: immunofluorescence of p-PDGFR in ligated carotid; type: in vivo, mouse; details: media and intima of carotid arteries
Protocol: as §1, §2

Mmp9 = assay: immunofluorescence of Mmp9 in ligated carotid; type: in vivo, mouse; details: arterial media and intima of carotid arteries
Protocol: as §1, §2

H3K27me3 = H3K27me3 staining in aortas of treated Fbn1C1039G/+ mice; type: in vivo, mouse; details: compared to control or losartan treated mice
Protocol: (§3) Latex was injected into the left ventricular apex under low pressure until it was visible in the femoral artery. Animals were then fixed in Formalin (10%) for 24 hours before transfer to 70% ethanol for dissection and storage. Aortas were then removed from the animals or dissected in situ for photography prior to paraffinization and sectioning (10 pM). Slides were produced for tissue staining or stained with standard stains including H&E staining, collagen deposition (Trichrome Stain (Masson) Kit, Sigma, USA), elastin (Verhoeff-Van Gieson, Thermo Scientific, MI, USA) or F-actin (ActinGreen™ 488 ReadyProbes, ThermoFisher Scientific, USA) for quantitative analysis. Elastin integrity score was rated by blinded observers and graded on an arbitrary scale of 5 (indicating high quality elastic fiber) to 1 (indicating severe elastin fragmentation). For nuclear staining aortas from human and mice were cryosectioned using OCT standard protocol as described previously (Fischer et al., 2008). Cohorts of 8-week-old wild-type or Fbn1cw3gGi+ mice were treated with oral administration in drinking water of either Losartan or GSK343 for 20 weeks (FIG. 5). […] Then 200 mL of drinking water was supplemented with 250 pL of GSK343 stock solution. […] Aortic dimensions were monitored monthly by echocardiograms as mentioned above.

TGF-β signaling = assay: TGF-β activity by phosphorylation of Smad2 or Erk1 in aortas of treated mice; type: in vivo, mouse; details: aortic tissue of treated Fbn1C1039G/+ mice
Protocol: as §3

EZH1 = EZH1 (Homo sapiens, UniProt Q92800); details: cited from earlier work
Sequence of EZH1 (Q92800 whole entry, species assumed): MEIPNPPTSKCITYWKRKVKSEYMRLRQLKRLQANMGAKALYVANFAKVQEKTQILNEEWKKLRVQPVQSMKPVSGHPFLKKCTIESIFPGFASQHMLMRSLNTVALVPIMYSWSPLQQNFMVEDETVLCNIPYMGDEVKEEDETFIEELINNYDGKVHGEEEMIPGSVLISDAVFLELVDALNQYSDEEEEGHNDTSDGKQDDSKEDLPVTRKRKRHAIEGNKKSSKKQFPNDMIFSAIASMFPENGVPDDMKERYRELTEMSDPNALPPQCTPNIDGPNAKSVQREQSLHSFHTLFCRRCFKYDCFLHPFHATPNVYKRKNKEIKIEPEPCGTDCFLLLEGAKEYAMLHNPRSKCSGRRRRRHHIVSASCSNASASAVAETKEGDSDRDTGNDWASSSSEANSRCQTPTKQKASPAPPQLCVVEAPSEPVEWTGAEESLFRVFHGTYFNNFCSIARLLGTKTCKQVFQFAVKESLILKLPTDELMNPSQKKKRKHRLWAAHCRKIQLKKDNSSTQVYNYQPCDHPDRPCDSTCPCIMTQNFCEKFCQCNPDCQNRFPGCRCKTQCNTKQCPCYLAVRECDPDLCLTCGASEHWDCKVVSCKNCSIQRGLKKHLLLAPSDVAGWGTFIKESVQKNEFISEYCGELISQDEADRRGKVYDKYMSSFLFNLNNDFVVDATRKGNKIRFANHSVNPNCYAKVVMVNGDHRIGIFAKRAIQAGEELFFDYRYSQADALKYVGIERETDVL
Sequence of EZH1 (O75530 whole entry partner, species assumed): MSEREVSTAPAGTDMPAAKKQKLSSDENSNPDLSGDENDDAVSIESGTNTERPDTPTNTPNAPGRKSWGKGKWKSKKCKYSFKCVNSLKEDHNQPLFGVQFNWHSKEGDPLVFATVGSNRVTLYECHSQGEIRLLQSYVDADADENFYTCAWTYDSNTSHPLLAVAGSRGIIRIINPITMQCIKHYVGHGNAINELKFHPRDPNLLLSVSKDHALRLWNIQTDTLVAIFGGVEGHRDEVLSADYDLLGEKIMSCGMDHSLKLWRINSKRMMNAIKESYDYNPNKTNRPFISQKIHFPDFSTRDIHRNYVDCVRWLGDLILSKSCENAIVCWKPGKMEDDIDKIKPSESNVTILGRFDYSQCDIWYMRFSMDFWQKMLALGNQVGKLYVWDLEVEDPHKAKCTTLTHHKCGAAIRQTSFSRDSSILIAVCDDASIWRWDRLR
Sequence of EZH1 (Q15022 whole entry partner, species assumed): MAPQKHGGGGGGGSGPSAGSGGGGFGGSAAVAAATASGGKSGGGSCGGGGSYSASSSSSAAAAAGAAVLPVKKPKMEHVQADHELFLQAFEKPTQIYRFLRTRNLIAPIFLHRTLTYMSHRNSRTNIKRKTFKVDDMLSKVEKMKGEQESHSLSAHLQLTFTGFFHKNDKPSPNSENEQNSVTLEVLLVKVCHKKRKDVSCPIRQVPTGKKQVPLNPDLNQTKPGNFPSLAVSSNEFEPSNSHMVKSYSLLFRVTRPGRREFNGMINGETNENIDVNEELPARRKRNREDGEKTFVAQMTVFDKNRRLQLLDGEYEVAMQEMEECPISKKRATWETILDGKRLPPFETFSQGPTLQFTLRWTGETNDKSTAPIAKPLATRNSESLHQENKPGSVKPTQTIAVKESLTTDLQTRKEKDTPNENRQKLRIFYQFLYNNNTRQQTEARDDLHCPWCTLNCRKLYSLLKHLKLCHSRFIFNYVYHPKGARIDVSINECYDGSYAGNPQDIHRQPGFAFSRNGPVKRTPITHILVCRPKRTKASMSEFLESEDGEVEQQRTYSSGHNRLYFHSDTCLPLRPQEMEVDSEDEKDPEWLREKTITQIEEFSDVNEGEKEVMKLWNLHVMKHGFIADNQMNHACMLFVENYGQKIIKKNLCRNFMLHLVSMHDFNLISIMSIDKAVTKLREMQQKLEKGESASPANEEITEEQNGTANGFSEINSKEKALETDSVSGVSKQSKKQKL
Sequence of EZH1 (Q09028 whole entry partner, species assumed): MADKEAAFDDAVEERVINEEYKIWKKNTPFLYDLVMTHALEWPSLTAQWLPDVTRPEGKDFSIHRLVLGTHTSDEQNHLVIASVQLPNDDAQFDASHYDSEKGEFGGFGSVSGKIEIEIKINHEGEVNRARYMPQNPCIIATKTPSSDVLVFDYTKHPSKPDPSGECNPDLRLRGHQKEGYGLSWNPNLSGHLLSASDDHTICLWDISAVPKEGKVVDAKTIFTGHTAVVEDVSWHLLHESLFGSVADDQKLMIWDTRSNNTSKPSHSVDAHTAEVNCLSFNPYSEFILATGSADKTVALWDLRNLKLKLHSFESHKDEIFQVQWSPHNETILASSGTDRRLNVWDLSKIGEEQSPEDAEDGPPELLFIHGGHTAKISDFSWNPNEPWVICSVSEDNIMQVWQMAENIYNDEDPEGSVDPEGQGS
Sequence of EZH1 (Q6ZN18 whole entry partner, species assumed): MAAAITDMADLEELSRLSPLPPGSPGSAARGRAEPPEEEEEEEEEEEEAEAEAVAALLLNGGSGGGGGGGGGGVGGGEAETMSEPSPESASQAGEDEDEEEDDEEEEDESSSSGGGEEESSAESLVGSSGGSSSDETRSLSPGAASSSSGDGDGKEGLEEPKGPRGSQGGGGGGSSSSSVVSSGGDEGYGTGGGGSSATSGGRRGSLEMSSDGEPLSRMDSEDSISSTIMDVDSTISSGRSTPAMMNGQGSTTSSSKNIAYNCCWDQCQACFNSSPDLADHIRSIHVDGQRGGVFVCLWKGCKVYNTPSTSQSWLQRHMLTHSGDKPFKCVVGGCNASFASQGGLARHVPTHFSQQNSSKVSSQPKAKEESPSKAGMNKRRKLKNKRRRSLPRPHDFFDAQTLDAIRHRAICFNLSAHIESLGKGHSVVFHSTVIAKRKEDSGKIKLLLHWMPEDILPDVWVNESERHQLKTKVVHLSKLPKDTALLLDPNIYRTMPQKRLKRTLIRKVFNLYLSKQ

[2] = system: H3K27 methylation in HCC1806 cells; details: read-out: IC50 for inhibition of H3K27 methylation; cited from earlier work

CCCc1cc(C)[nH]c(=O)c1CNC(=O)c1cc(-c2ccnc(N3CCN(C)CC3)c2)cc2c1cnn2C(C)C [GSK343]
extent of the stenotic response / neointimal formation [1]: significant inhibition of neointimal formation; also recorded: dramatically improved the extent of the stenotic response
expression of α-SMA in carotid VSMCs (a-SMA and SM22a; ligated carotid, in contrast to carotid VSMCs in wild type animals): robust expression
expression of contractile proteins such as a-SMA and SM22a (a-SMA and SM22a; ligated carotids of treated mice): improved the expression of contractile proteins
phosphorylation of PDGFR (PDGFR): dramatic reduction
accumulation of Mmp9 (Mmp9): decreased accumulation
H3K27me3 staining / aortic medial H3K27me3 modifications (H3K27me3): significant suppression of H3K27me3 staining; also recorded: significantly decreased
TGF-β activity as assessed by phosphorylation of Smad2 or Erk1 protein (TGF-β signaling): did not suppress and not
selectivity for EZH2 vs. EZH1 (EZH1): 60 fold
IC50 [2]: < 200 nM

Source: patent US11938129B2, “Methods and compositions for the treatment of vascular disease” (THE GENERAL HOSPITAL CORPORATION, priority 2018, dated 2024)
